In US20150306096A1, “8'-HYDROXY-DIHYDROERGOTAMINE COMPOUNDS AND COMPOSITIONS” (MAP Pharmaceuticals, Inc., priority 2012, published 2015):
Like-named read-outs stand apart in the source and are kept apart here.

How the values were obtained:
[1] = tested on: NMDA (NR1/NR2A/NR2B/NR2C/NR2D); assay: NMDA receptor Fluo-8 calcium FLIPR assay (agonist/antagonist); type: cell-based, human; conditions: NMDA receptors
Experimental: (§1) Additional receptor agonist/agonist activity assessments were performed using the 8′-OH DHE test compound. Table 12 contains a summary of the cell lines (CHO-K1/HEK293 transfected with relevant human receptor) and the assays performed to detect any agonist or antagonist activity.
Studies for NMDA receptors (the NR1, NR2A, NR2B, NR2C and NR2D receptors) were conducted to monitor receptor activity of the test 8′-OH DHE compound using the Fluo-8 calcium kit and a Fluorescence Imaging Plate Reader (FLIPR^TETRA™) instrument. The following channels were evaluated: Cloned NMDA receptor (NR1/NR2A) channel (encoded by the GRIN1 and GRIN2A genes, co-expressed in HEK293 cells); Cloned NMDA receptor (NR1/NR2B) channel (encoded by the GRIN1 and GRIN2B genes, co-expressed in HEK293 cells); Cloned NMDA receptor (NR1/NR2C) channel (encoded by the GRIN1 and GRIN2C genes, co-expressed in HEK293 cells); and Cloned NMDA receptor (NR1/NR2D) channel (encoded by the GRIN1 and GRIN2D genes, transiently co-expressed in HEK293 cells).
For the agonist assessment, the effect of the test 8′-OH DHE compound was evaluated in the absence of the positive control agonist. The signal, elicited in the presence of the agonist (100 μM Glutamic acid+20 μM Glycine), was set to 100% activation and the signal in the presence of the vehicle control (Mg^2+-free HB-PS) was set to 0% activation. […]

[2] = target: T1, Adenosine A2a (Homo sapiens, UniProt P29274); assay: cAMP HTRF assay; type: cell-based
T1 construct: expressed in transfected cells; host or cells: HEK293
T1 sequence (P29274 whole entry): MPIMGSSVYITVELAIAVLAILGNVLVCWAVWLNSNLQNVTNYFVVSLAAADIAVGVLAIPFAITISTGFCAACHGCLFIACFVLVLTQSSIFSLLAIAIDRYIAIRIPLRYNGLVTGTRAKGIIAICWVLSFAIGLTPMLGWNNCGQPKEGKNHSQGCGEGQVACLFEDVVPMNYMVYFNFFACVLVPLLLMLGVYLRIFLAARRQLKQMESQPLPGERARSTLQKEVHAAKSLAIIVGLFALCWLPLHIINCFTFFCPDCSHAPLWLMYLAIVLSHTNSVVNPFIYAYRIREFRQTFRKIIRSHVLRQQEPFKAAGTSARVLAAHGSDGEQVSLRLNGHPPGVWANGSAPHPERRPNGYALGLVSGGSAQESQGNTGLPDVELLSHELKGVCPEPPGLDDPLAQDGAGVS
Experimental: as §1
Cells expressing the human recombinant receptor of interest were grown in media without antibiotic and detached by gentle flushing with PBS-EDTA (5 mM EDTA), recovered by centrifugation and resuspended in assay buffer (KRH: 5 mM KCl, 1.25 mM MgSO4, 124 mM NaCl, 25 mM HEPES, 13.3 mM glucose, 1.25 mM KH2PO4, 1.45 mM CaCl2, 0.5 g/L BSA). Dose response curves were performed in parallel with the reference compounds. For agonist tests (96-well plates), 12 μL of cells was mixed with 12 μL of the test 8′-OH DHE compound at increasing concentrations and then incubated for 30 minutes at RT. Lysis buffer was added and after one hour incubation, cAMP concentrations were determined according to the manufacturer specification with the HTRF kit. For antagonist tests (96-well plates), 12 μL of cells was mixed with 6 μL of the test 8′-OH DHE compound at increasing concentrations and then incubated for 10 minutes. […] Lysis buffer was added and after 1 hour incubation, cAMP concentrations were determined according to the manufacturer specification, with the HTRF kit. […]

[3] = tested on: Orexin (OX1/OX2); assay: Aequorin assay; type: cell-based, human; conditions: Orexin receptors
Experimental: as §1
(§2) Aequorin assays were conducted to monitor activity for 8′-OH DHE against the receptors indicated in Table 12 above (except for mGlu3 and mGlu5). CHO-K1 cells co-expressing mitochondrial apoaequorin and the recombinant human receptor of interest were grown to mid-log phase in culture media without antibiotics and then detached with PBS-EDTA, centrifuged and resuspended in assay buffer (DMEMHAM's F12 with HEPES, without phenol red+0.1% BSA, protease free) at a concentration of 1×10^6 cell/mL. Cells were incubated at RT for at least 4 hours with coelenterazine h. Reference agonistant/agonist was tested to evaluate the performance of the assay and to determine EC50/IC50.
(§3) 50 μL of the cell suspension was mixed with 50 μL of test or reference agonist in a 96-well plate. The resulting emission of light was recorded using Hamamatsu Functional Drug Screening System 6000 (FDSS 6000) luminometer. For antagonist testing, 100 μL of the reference agonist at its EC80 was injected on the mix of cells and test compound, following an incubation of 15 minutes after the first injection. The resulting emission of light was recorded using the FDSS 6000 luminometer. To standardize the emission of recorded light (and determine of the ‘100% signal’) across plates and across different experiments, some wells contained 100 μM digitonin or a saturating concentration of ATP (20 μM).

[4] = tested on: Neurokinin (NK1/NK2/NK3); assay: Aequorin assay; type: cell-based, human; conditions: Neurokinin receptors
Experimental: as §1, §2, §3

[5] = tested on: VIP/PACAP (PAC1/VPAC1/VPAC2); assay: Aequorin assay; type: cell-based, human; conditions: VIP/PACAP receptors
Experimental: as §1, §2, §3

[6] = tested on: Cholecystokinin (CCK1/CCK2); assay: Aequorin assay; type: cell-based, human; conditions: CCK receptors
Experimental: as §1, §2, §3

[7] = cited from earlier work

SMILES | Activity (Agonism: EC50; Antagonism: IC50) [1] | Activity (Agonism: EC50; Antagonism: IC50) [2] | Activity (Agonism: EC50; Antagonism: IC50) [3] | Activity (Agonism: EC50; Antagonism: IC50) [4] | Activity (Agonism: EC50; Antagonism: IC50) [5] | Activity (Agonism: EC50; Antagonism: IC50) [6] | fraction of dose extracted in the urine ([7]; IM administered dose) | bioavailability ([7]; IM) [%] | bioavailability ([7]; IN administration) | oral bioavailability ([7]; oral)
CN1C[C@H](C(=O)N[C@]2(C)O[C@@]3(O)[C@@H]4CCC(O)N4C(=O)[C@H](Cc4ccccc4)N3C2=O)C[C@@H]2c3cccc4[nH]cc(c34)C[C@H]21 (stereo partly shown) [8′-OH DHE, 8′-Hydroxy-Dihydroergotamine] | Inactive | Inactive | Inactive | Inactive | Inactive | Inactive |  |  |  | 
CN1C[C@H](C(=O)N[C@]2(C)O[C@@]3(O)[C@@H]4CCCN4C(=O)[C@H](Cc4ccccc4)N3C2=O)C[C@@H]2c3cccc4[nH]cc(c34)C[C@H]21 [DHE, Dihydroergotamine] |  |  |  |  |  |  | 6-7% | 100 | about 40% | 1-3%
